Experimental data from patent publication US20160185797A1, “ALKYNYL ALCOHOLS AND METHODS OF USE” (Genentech, Inc., priority 2013, published 2016).

Columns and labels:
[1] = tested on: p52 (NF-kB2) nuclear translocation in HeLa cells; experiment: p52 (NF-kB2) nuclear translocation assay in HeLa cells, anti-lymphotoxin beta receptor antibody stimulated (non-classical NF-kB signaling), high content imaging; type: cell-based; details: Homo sapiens, 100 ng/mL anti-lymphotoxin beta receptor antibody for 5 hours, read-out: p52 HeLa Transloc Assay (IC50)
Experimental: (§1) Several assays were developed to profile the cellular activities of NIK inhibitors.
(§2) (2) A second set of cell assay are used to define the selectivity of NIK inhibitors toward inhibition of classical vs. non-classical NF-kB signaling and rely on quantification of the nuclear translocation of p52 (NF-kB2) and REL-A (p65) using high content cellular imaging. For the p52 (non-classical NF-kB signaling) nuclear translocation assay, HeLa cells are treated with different concentrations of compounds (0.2% DMSO final) in medium containing 10% fetal bovine serum and then stimulated with 100 ng/mL of an anti-lymphotoxin beta receptor antibody (R&D Systems) for 5 hours. In the REL-A nuclear translocation assay, HeLa cells are incubated with compounds (0.2% DMSO final) for 4.5 hours in medium containing 10% fetal bovine serum before stimulating them with 10 ng/mL tumor necrosis factor (TNF)-α (R&D Systems) for 30 minutes. Cells are fixed with 4% paraformaldehyde, permeabilized by adding 0.1% Triton X-100 in phosphate buffered saline, and then are incubated with either 2 ug/mL anti-p52 antibody (Millipore) or 400 ng/mL anti-REL-A (p65) antibody (Santa Cruz Biotechnology). Finally, the cells are incubated with an Alexa488-labeled secondary antibody (Invitrogen) and DRAQ5 DNA stain (Biostatus). Imaging is carried out using an Opera reader (Perkin Elmer) and data are analyzed with the aid of Acapella software (Perkin Elmer). The p52 or REL-Atranslocation into the nucleus is quantified by the ratio of the nuclear to cytoplasmic signal intensity. […] The compounds in listed in Table 1 have the corresponding inhibitory value (IC50 in micromolar) for NIK p52 Translocation Assay as set forth in Table 2.
(§3) The compounds in listed in Table 1 have the corresponding inhibitory values (IC50 in micromolar) for the Translocation Assays as set forth in Table 2.

[2] = tested on: REL-A (p65) nuclear translocation in HeLa cells; experiment: REL-A (p65) nuclear translocation assay in HeLa cells, TNF-α stimulated (classical NF-kB signaling), high content imaging; type: cell-based; details: Homo sapiens, HeLa, compound 4.5 h, then 10 ng/mL TNF-α for 30 minutes, read-out: REL-A HeLa Transloc Assay (IC50)
Experimental: as §1, §2, §3

[3] = molecular target: T1, nuclear factor-kappa B (NF-kB)-inducing kinase (NIK) (Homo sapiens, UniProt Q99558); experiment: NIK enzyme inhibition assay (Transcreener ADP fluorescence polarization, NIK ADP-FP); type: biochemical
T1 construct: made in house; host or cells: baculovirus-infected insect cells
T1 sequence (Q99558 whole entry): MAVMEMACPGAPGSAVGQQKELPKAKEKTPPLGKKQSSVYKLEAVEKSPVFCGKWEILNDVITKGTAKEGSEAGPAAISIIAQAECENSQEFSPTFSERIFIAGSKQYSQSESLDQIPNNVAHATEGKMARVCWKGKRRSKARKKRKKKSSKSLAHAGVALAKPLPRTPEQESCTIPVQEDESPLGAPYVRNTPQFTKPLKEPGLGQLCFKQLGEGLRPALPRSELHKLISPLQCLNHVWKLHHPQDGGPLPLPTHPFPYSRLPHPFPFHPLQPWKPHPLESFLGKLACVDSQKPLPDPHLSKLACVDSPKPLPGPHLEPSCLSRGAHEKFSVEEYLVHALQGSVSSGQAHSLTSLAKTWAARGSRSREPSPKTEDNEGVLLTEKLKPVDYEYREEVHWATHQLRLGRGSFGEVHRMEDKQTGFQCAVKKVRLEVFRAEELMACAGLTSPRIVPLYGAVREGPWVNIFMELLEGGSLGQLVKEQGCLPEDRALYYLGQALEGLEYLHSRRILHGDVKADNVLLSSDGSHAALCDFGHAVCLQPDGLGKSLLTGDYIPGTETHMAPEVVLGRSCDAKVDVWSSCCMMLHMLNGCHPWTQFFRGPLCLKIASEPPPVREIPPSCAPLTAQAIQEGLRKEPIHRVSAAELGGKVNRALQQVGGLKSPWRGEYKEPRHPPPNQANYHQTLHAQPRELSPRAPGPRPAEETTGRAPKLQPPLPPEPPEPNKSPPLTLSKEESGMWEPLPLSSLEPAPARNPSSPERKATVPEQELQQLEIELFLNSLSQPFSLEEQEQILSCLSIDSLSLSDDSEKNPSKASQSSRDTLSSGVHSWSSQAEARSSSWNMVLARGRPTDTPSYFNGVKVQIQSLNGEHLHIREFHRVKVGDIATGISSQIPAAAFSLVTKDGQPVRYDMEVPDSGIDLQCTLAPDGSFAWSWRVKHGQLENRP

Compound	IC50 [1]	IC50 [2]	Ki [3]
CN1CCC(O)(C#Cc2cccc(-c3nc(C(N)=O)cn4ccnc34)c2)C1=O (stereo in doubt) [Example 45, 8-(3-[2-[(3S)-3-hydroxy-1-methyl-2-oxopyrrolidin-3-yl]ethynyl]phenyl)imidazo [1,2-a]pyrazine-6-carboxamide]	122 nM	> 20 µM	0.39 nM
CN1CC[C@@](O)(C#Cc2cccc(-c3cccc(C(N)=O)n3)c2)C1=O [Example 1, 6-[3-[2-[(3R)-3-hydroxy-1-methyl-2-oxo-pyrrolidin-3-yl]ethynyl]phenyl]pyridine-2-carboxamide]	93.2 nM	> 20 µM	
CN1CC[C@@](O)(C#Cc2cccc(-c3nc(C(N)=O)cc(N4CCOCC4)n3)c2)C1=O [Example 2, 2-[3-[2-[(3R)-3-hydroxy-1-methyl-2-oxo-pyrrolidin-3-yl]ethynyl]phenyl]-6-morpholino-pyrimidine-4-carboxamide]	101 nM	> 20 µM	1.73 nM
CN1CC[C@@](O)(C#Cc2cccc(-c3ccnc(C(N)=O)n3)c2)C1=O [Example 3, 4-[3-[2-[(3R)-3-hydroxy-1-methyl-2-oxo-pyrrolidin-3-yl]ethynyl]phenyl]pyrimidine-2-carboxamide]	674 nM	> 20 µM	
CN1CC[C@@](O)(C#Cc2cccc(-c3nc(C(N)=O)c4ccccc4n3)c2)C1=O [Example 4, 2-[3-[2-[(3R)-3-hydroxy-1-methyl-2-oxo-pyrrolidin-3-yl]ethynyl]phenyl]quinazoline-4-carboxamide]	31.9 nM	> 20 µM	0.05 nM
CN1CC[C@@](O)(C#Cc2cccc(-c3nc(C(N)=O)cc(N4CCCC4)n3)c2)C1=O [Example 5, 2-[3-[2-[(3R)-3-hydroxy-1-methyl-2-oxo-pyrrolidin-3-yl]ethynyl]phenyl]-6-pyrrolidin-1-yl-pyrimidine-4-carboxamide]	122 nM	> 20 µM	0.8 nM
CN1CC[C@@](O)(C#Cc2cccc(-c3nc(C(N)=O)cc(N(C)C)n3)c2)C1=O [Example 6, 6-(dimethylamino)-2-[3-[2-[(3R)-3-hydroxy-1-methyl-2-oxo-pyrrolidin-3-yl]ethynyl]phenyl] pyrimidine-4-carboxamide]	108 nM	> 20 µM	0.83 nM
CN1CC[C@@](O)(C#Cc2cccc(-c3nc(C(N)=O)cc(N4CC(F)(F)C4)n3)c2)C1=O [Example 8, 6-(3,3-difluoroazetidin-1-yl)-2-[3-[2-[(3R)-3-hydroxy-1-methyl-2-oxo-pyrrolidin-3-yl]ethynyl]phenyl]pyrimidine-4-carboxamide]	211 nM	> 20 µM	2.35 nM
CN1CC[C@@](O)(C#Cc2cccc(-c3nc(NC4CC4)cc(C(N)=O)n3)c2)C1=O [Example 9, 6-(cyclopropylamino)-2-[3-[2-[(3R)-3-hydroxy-1-methyl-2-oxo-pyrrolidin-3-yl]ethynyl]phenyl] pyrimidine-4-carboxamide]	270 nM	> 20 µM	1.24 nM
COCCN(C)c1cc(C(N)=O)nc(-c2cccc(C#C[C@]3(O)CCN(C)C3=O)c2)n1 [Example 10, 2-[3-[2-[(3R)-3-hydroxy-1-methyl-2-oxo-pyrrolidin-3-yl]ethynyl]phenyl]-6-[2-methoxyethyl(methyl)amino] pyrimidine-4-carboxamide]	266 nM	> 20 µM	1.17 nM
CN1CC[C@@](O)(C#Cc2cccc(-c3nc(C(N)=O)cc(N4CC5(COC5)C4)n3)c2)C1=O [Example 11, 2-[3-[2-[(3R)-3-hydroxy-1-methyl-2-oxo-pyrrolidin-3-yl]ethynyl]phenyl]-6-(6-oxa-2-azaspiro[3.3]heptan-2-yl) pyrimidine-4-carboxamide]	2500 nM	> 20 µM	4.65 nM
CNc1cc(C(N)=O)nc(-c2cccc(C#C[C@]3(O)CCN(C)C3=O)c2)n1 [Example 12, 2-[3-[2-[(3R)-3-hydroxy-1-methyl-2-oxo-pyrrolidin-3-yl]ethynyl]phenyl]-6-(methylamino)pyrimidine-4-carboxamide]	236 nM	> 20 µM	0.33 nM
Cc1cc(C(N)=O)nc(-c2cccc(C#C[C@]3(O)CCN(C)C3=O)c2)n1 [Example 13, 2-[3-[2-[(3R)-3-hydroxy-1-methyl-2-oxo-pyrrolidin-3-yl]ethynyl]phenyl]-6-methyl-pyrimidine-4-carboxamide]	382 nM	> 20 µM	0.48 nM
CN1CC[C@@](O)(C#Cc2cccc(-c3nc(N)cc(C(N)=O)n3)c2)C1=O [Example 14, 6-amino-2-[3-[2-[(3R)-3-hydroxy-1-methyl-2-oxo-pyrrolidin-3-yl]ethynyl]phenyl]pyrimidine-4-carboxamide]	665 nM	> 20 µM	0.38 nM
COc1cc(C(N)=O)nc(-c2cccc(C#C[C@]3(O)CCN(C)C3=O)c2)n1 [Example 29, 2-[3-[2-[(3R)-3-hydroxy-1-methyl-2-oxo-pyrrolidin-3-yl]ethynyl]phenyl]-6-methoxy-pyrimidine-4-carboxamide]	46.6 nM	> 20 µM	
CN1CC[C@@](O)(C#Cc2cccc(-c3cc4ccccc4c(C(N)=O)n3)c2)C1=O [Example 40, 3-[3-[2-[(3R)-3-hydroxy-1-methyl-2-oxo-pyrrolidin-3-yl]ethynyl]phenyl] isoquinoline-1-carboxamide]	7.8 nM	> 8 µM	
CN1CC[C@@](O)(C#Cc2cccc(-c3ccc(N)c(C(N)=O)n3)c2)C1=O [Example 63, 3-amino-6-[3-[2-[(3R)-3-hydroxy-1-methyl-2-oxo-pyrrolidin-3-yl]ethynyl]phenyl]pyridine-2-carboxamide]	10.7 nM	≥ 20 µM	
COc1cc(C(N)=O)nc(-c2cccc(C#C[C@]3(O)CCN(C)C3=O)c2)c1 [Example 90, 6-[3-[2-[(3R)-3-hydroxy-1-methyl-2-oxo-pyrrolidin-3-yl]ethynyl]phenyl]-4-methoxy-pyridine-2-carboxamide]	16.8 nM	≥ 20 µM	
CN1CC[C@@](O)(C#Cc2cccc(-c3cncc(C(N)=O)n3)c2)C1=O [Example 154, 6-[3-[2-[(3R)-3-hydroxy-1-methyl-2-oxo-pyrrolidin-3-yl]ethynyl]phenyl]pyrazine-2-carboxamide]	400 nM	> 2 µM	
CN1CC[C@@](O)(C#Cc2cccc(-c3nc(C(N)=O)c4cnn(C5CC5)c4n3)c2)C1=O [Example 193, 1-cyclopropyl-6-[3-[2-[(3R)-3-hydroxy-1-methyl-2-oxo-pyrrolidin-3-yl]ethynyl]phenyl]pyrazolo[3,4-d] pyrimidine-4-carboxamide]			< 0.1 nM
CN1CC[C@@](O)(C#Cc2cc(F)c(F)c(-c3ccc(N)c(C(N)=O)n3)c2)C1=O [Example 194, 3-amino-6-[2,3-difluoro-5-[2-[(3R)-3-hydroxy-l-methyl-2-oxo-pyrrolidin-3-yl]ethynyl]phenyl]pyridine-2-carboxamide]			< 0.05 nM
Cc1cc(-c2cccc(C#C[C@]3(O)CCN(C)C3=O)c2)nc(C(N)=O)c1O [Example 195, 3-hydroxy-6-[3-[2-[(3R)-3-hydroxy-1-methyl-2-oxo-pyrrolidin-3-yl]ethynyl]phenyl]-4-methyl-pyridine-2-carboxamide]			< 0.05 nM
CN1CC[C@@](O)(C#Cc2cc(-c3cnc(N)c(C(N)=O)n3)c3ncsc3c2)C1=O [Example 196, 3-amino-6-[6-[2-[(3R)-3-hydroxy-1-methyl-2-oxo-pyrrolidin-3-yl]ethynyl]-1,3-benzothiazol-4-yl]pyrazine-2-carboxamide]			1 nM
CN1CC[C@@](O)(C#Cc2cccc(-c3cc(CO)cc(C(N)=O)n3)c2)C1=O [Example 197, 4-(hydroxymethyl)-6-[3-[2-[(3R)-3-hydroxy-1-methyl-2-oxo-pyrrolidin-3-yl]ethynyl]phenyl]pyridine-2-carboxamide]			0.8 nM
COCc1cc(C(N)=O)nc(-c2cccc(C#C[C@]3(O)CCN(C)C3=O)c2)c1 [Example 198, 6-[3-[2-[(3R)-3-hydroxy-1-methyl-2-oxo-pyrrolidin-3-yl]ethynyl]phenyl]-4-(methoxymethyl)pyridine-2-carboxamide]			0.5 nM
CCOc1cc(C(N)=O)nc(-c2cccc(C#C[C@]3(O)CCN(C)C3=O)c2)c1 [Example 199]			0.4 nM
CN1CC[C@@](O)(C#Cc2cccc(-c3cc(N4CC(F)(F)C4)cc(C(N)=O)n3)c2)C1=O [Example 200, 4-(3,3-difluoroazetidin-1-yl)-6-[3-[2-[(3R)-3-hydroxy-1-methyl-2-oxo-pyrrolidin-3-yl]ethynyl]phenyl]pyridine-2-carboxamide]			< 0.05 nM
